Laboratory results published in patent publication US20160108381A1, “DNA POLYMERASES AND MUTANTS THEREOF” (LIFE TECHNOLOGIES CORPORATION, priority 2001, published 2016).

Tests used:
[1] = target: T1, Caldibacillus cellulovorans CompA.2 (CA2) DNA polymerase, SEQ ID NO:16 ([Caldibacillus] cellulovorans, UniProt Q6X9S0); assay: Steady-state kinetics, DNA- and RNA-dependent polymerase activity; type: biochemical
T1 sequence (Q6X9S0 with tags, fused parts or gaps): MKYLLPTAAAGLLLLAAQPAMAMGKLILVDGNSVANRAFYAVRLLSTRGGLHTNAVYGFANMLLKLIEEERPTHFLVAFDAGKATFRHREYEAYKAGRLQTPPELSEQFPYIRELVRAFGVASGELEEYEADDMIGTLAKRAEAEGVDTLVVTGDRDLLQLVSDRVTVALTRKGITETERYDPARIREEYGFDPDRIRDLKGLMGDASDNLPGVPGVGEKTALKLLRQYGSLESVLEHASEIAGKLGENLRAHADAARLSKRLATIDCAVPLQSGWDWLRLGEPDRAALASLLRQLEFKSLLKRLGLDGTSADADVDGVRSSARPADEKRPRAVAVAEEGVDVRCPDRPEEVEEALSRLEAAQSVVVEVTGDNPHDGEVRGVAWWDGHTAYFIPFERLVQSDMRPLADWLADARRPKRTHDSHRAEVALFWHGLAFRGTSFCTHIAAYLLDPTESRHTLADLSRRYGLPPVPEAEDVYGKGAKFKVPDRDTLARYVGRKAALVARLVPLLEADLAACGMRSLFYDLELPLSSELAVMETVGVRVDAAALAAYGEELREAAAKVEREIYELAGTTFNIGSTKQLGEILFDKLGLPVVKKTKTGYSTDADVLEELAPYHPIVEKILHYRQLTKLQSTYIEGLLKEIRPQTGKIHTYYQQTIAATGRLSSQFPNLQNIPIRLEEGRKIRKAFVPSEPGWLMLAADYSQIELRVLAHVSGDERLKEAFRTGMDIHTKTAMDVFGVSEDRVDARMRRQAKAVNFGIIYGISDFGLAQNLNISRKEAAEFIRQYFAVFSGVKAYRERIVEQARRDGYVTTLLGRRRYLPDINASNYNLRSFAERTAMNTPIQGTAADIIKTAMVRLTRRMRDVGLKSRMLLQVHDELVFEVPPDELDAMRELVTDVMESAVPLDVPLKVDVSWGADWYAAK
Protocol: (§1) Purification of CA2, B.EA1, Rt41A, Dth, Tok13B, Tok7B, and Rt69B DNA polymerase. E. coli cells (BL21SI, Invitrogen Corporation, Carlsbad, Calif.) bearing the plasmid pET26B with the gene for CA2, B.EA1, Rt41A, or Dth DNA polymerase were grown in 2.8-1 Fembach flasks in LB broth containing no salt and 50 μg/ml kanamycin at 37° C. After the culture reached an A590 of 1.2, expression of DNA polymerase was induced with 0.3 M NaCl for 3 hr. Cells were harvested by centrifugation and stored at −70° C. E. coli cells (BL21AI) bearing the plasmid pET14B with the gene for Tok13B, Tok7B, or RT69B DNA polymerase were grown in 2.8-1 Fembach flasks in LB broth containing 50 μg/ml ampicillin at 37° C. After the culture reached an A590 of 1.0, expression of DNA polymerase was induced by the addition of 0.2% arabinose for 3 hr. Cells were harvested by centrifugation and stored at −70° C.
(§2) Steady-state kinetic measurements.
The catalytic rate constant kcat and the Michaelis constant KM were determined for both the DNA-dependent and RNA-dependent polymerase activities for the polypeptides of the invention and these parameters were compared to those of Tne DNA polymerase enzyme and […]™ II reverse transcriptase. […]

[2] = target: T2, Bacillus caldolyticus EA1.3 (B.EA1) DNA polymerase, SEQ ID NO:20 ([Bacillus] caldolyticus, UniProt Q6X9S1); assay: as above; type: biochemical; conditions: Table 40; dTTP; 55 °C
T2 sequence (Q6X9S1 with tags, fused parts or gaps): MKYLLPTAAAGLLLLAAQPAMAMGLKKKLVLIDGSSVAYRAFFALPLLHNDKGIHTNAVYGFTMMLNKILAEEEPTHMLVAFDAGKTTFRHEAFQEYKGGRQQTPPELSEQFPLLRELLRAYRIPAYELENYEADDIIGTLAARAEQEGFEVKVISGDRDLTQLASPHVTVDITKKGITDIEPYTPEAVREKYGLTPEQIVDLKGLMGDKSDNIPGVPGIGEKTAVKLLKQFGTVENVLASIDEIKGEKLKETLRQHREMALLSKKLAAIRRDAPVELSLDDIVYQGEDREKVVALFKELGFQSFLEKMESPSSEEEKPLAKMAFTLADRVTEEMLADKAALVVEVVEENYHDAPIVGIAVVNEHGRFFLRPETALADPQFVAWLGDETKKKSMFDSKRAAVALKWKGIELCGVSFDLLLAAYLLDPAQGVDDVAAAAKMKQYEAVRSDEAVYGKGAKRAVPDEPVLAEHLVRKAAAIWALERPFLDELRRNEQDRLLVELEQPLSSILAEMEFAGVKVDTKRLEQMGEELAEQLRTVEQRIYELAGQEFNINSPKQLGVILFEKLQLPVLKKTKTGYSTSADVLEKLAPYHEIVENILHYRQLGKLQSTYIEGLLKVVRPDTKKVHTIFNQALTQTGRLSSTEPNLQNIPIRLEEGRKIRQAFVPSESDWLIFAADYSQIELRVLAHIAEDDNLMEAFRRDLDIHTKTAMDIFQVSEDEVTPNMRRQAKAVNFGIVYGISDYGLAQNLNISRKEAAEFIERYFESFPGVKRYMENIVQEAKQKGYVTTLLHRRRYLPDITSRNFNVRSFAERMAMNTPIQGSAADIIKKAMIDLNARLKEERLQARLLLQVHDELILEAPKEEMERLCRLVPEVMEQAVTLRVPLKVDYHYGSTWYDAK
Protocol: as §1, §2

## Cc1cn([C@H]2C[C@H](O)[C@@H](COP(=O)(O)OP(=O)(O)OP(=O)(O)O)O2)c(=O)[nH]c1=O [dTTP]
[1]; Table 34, RNA template, 2 mM MgCl2, 45 °C per footnote
  Kcat RNA (dTTP): 5 s⁻¹
[1]; Table 40, dTTP, 55 °C
  kCAT Ratio (RNA/DNA): 0.59
[1]; read-out: Km RNA (dTTP), Table 34, RNA template, 2 mM MgCl2, 45 °C per footnote
  Km: 17 µM
[2]
  kCAT Ratio (RNA/DNA): 0.59
